Results from US8796268B2, “Heteroaryls and uses thereof” (Millennium Pharmaceuticals, Inc., priority 2010, dated 2014).

Key:
Assay type in all cases: biochemical
Human PI3K alpha = target: T1, Human PI3K alpha (Homo sapiens, UniProt P42336); test: Human PI3K alpha enzyme assay (HTRF); details: at a 1.1 μM concentration; read-out: PI3Kα Percent Inhibition
T1 construct: His (N); host or cells: SF9 insect cells (baculovirus)

Human PI3K beta = target: T2, Human PI3K beta (Homo sapiens, UniProt P42338); test: Human PI3K beta enzyme assay (HTRF); details: at a 1.1 μM concentration; read-out: PI3β Percent Inhibition
T2 construct: His (N); host or cells: SF9 insect cells (baculovirus)
Summary of the method: (§1)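 Compounds were mixed with 25 uM ATP, then with 3.5 uM di-C8 PI(4,5)P2 and His-tagged PI3K isoform (β 5.25 nM, δ 0.75 nM, γ 5 nM) at pH 7.00. After 30 min at room temperature, EDTA stopped the reaction and PIP3 was measured by HTRF over 1 h.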

Human PI3K delta = target: T3, Human PI3K delta (Homo sapiens, UniProt O00329); test: Human PI3K delta enzyme assay (HTRF); details: at a 1.0 μM concentration; read-out: PI3Kδ Percent Inhibition
T3 construct: His (N); host or cells: SF9 insect cells (baculovirus)
Summary of the method: as §1

Human PI3K gamma = target: T4, Human PI3K gamma (Homo sapiens, UniProt P48736); test: Human PI3K gamma enzyme assay (HTRF); details: at a 1.0 μM concentration; read-out: PI3Kγ Percent Inhibition
T4 construct: His (N); host or cells: SF9 insect cells (baculovirus)
Summary of the method: as §1

Human VPS34 = target: T5, Human VPS34 (Homo sapiens, UniProt Q8NEB9); test: Human VPS34 enzyme assay (Adapta Universal Kinase Assay); details: at a 1.0 μM concentration; read-out: VPS34 Percent Inhibition
T5 construct: GST (with thrombin site, pDEST20-Thrombin) (N); host or cells: SF9 insect cells (baculovirus)
Source text: The catalytic subunits of PI3Ks are cloned into either pDEST8(p110 alpha) or pDEST10(p110beta, p110delta, and p110gamma) as N-terminal His tagged fusion proteins using the Gateway system (Invitrogen, catalog#11804-010 for pDEST8 and 11806-015 for pDEST10). The sequences are verified before recombinant protein expression using the Baculovirus Expression System with Gateway® Technology. The accession numbers for the subunits are as follows: • p110 alpha (GB:U79143) • p110beta (GB: S67334) • p110delta (GB: U86453) • p110gamma (GB: X83368) • The regulatory subunits of PI3Ks are cloned into pDEST8 as un-tagged protein using the Gateway system (Catalog#11804-010). The sequences are verified before recombinant protein expression using the Baculovirus Expression System with Gateway® Technology. The accession numbers for the subunits are as following: • p85 alpha (GB: BC030815) • p101(GB: AB028925) • VPS34 (accession number GB:BC033004) is cloned into pDEST20—Thombin as N-terminal GST tagged fusion proteins using the Gateway system (Invitrogen, catalog#11804-013). The sequences are verified before recombinant protein expression using the Baculovirus Expression System with Gateway® Technology.
For expression VPS34 was infected at 1MOI in SF9 cells and harvested 72 hours post infection.
For purification, VPS34 is purified by Glutathione Sepharose 4 Fast Flow (GE Healthcare #17-5132-03) followed by HiTrap Q (GE Healthcare #17-1153-01).
3) VPS34 is assayed using Adapta™ Universal Kinase Assay Kit (Invitrogen).
4) Human VPS34 enzyme assay method
100 nL compounds in DMSO are added to wells of a 384 well microtitre plate (Greiner 780076). At room temperature: 5 ul VPS34 reaction buffer (Invitrogen Assay Buffer Q (diluted 1 in 5 with nanopure water) plus 2 mM DTT and 2 mM MnCl2) containing ATP (20 uM, Promega) and 200 uM PI—PS substrate (Invitrogen PV5122) is added followed immediately by 5 ul VPS34 reaction buffer (as above) containing VPS34 (5 nM, Millennium Protein Sciences Group) and the mixture is incubated with shaking at room temperature for 1 hour. Then 5 ul VPS34 stop-detect mix (as per Invitrogen Adapta Assay kit (PV5009) instructions (contains kinase quench buffer, TR-FRET buffer, Adapta Eu anti-ADP antibody and Alexa Fluor 647 ADP tracer)) is added to quench the reaction. The plates are then incubated for 30 minutes at room temperature with shaking and then read on a BMG PheraStar Plus reader.
For the assay methods described above, test compound percent inhibition, at various concentrations, is calculated relative to control (DMSO and EDTA) treated samples. Compound concentration versus percent inhibition curves are fitted to generate IC50 values. One skilled in the art will appreciate that the values generated either as percentage inhibition at a single concentration or IC50 values are subject to experimental variation.

T4 sequence (P48736 whole entry): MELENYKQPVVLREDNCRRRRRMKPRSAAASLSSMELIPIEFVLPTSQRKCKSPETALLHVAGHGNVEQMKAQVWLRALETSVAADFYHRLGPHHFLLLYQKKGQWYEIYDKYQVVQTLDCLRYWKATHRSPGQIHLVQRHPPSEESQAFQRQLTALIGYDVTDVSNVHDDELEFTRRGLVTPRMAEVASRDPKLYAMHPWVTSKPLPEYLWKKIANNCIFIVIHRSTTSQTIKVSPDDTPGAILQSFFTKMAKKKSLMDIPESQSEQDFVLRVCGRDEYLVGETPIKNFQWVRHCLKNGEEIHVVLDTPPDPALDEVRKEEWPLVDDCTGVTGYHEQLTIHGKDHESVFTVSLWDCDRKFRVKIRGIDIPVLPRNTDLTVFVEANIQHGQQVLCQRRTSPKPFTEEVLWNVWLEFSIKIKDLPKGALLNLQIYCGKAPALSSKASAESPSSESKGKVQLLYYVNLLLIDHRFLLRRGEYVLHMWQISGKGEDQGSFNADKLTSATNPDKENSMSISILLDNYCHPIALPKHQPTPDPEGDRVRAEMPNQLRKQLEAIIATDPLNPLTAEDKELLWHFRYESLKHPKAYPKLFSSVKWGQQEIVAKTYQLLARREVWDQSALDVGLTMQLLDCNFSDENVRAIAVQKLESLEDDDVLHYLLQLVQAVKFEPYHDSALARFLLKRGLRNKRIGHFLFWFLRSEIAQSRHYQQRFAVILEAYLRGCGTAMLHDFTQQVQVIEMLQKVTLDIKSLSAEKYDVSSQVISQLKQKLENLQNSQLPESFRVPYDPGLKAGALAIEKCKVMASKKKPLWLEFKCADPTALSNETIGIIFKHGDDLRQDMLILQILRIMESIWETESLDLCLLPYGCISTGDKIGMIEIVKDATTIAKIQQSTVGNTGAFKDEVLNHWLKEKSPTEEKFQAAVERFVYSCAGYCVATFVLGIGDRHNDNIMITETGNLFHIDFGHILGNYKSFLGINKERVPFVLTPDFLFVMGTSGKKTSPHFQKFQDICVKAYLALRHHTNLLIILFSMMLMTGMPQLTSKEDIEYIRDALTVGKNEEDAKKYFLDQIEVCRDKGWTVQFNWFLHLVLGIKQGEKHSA
T1 sequence (P42336 whole entry): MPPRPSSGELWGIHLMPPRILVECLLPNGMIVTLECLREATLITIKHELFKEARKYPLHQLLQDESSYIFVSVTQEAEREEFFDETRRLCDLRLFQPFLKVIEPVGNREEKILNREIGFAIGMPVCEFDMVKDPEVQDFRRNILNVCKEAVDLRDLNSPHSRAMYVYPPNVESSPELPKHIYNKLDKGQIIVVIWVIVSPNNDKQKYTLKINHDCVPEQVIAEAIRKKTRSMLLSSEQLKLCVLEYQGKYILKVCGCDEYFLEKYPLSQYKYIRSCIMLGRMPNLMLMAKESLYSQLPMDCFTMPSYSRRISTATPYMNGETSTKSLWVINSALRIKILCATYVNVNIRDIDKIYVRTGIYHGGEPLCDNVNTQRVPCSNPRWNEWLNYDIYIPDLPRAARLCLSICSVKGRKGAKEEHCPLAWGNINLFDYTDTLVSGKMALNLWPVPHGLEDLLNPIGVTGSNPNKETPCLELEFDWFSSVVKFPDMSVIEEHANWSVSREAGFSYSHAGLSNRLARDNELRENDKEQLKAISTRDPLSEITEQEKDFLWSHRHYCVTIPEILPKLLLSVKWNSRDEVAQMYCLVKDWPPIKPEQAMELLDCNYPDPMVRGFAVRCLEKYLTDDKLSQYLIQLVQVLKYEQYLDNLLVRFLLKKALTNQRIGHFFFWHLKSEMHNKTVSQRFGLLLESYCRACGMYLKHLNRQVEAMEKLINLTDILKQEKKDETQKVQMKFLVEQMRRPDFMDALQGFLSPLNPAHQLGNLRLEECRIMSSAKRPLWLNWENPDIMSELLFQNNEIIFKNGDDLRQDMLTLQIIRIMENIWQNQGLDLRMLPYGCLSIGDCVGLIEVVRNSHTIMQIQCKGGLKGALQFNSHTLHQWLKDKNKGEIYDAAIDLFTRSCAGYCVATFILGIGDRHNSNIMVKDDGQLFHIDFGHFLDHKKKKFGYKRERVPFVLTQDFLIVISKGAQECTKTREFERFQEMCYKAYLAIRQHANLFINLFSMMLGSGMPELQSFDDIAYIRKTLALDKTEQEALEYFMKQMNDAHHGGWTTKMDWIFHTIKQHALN
T1 sequence (P27986 whole entry partner): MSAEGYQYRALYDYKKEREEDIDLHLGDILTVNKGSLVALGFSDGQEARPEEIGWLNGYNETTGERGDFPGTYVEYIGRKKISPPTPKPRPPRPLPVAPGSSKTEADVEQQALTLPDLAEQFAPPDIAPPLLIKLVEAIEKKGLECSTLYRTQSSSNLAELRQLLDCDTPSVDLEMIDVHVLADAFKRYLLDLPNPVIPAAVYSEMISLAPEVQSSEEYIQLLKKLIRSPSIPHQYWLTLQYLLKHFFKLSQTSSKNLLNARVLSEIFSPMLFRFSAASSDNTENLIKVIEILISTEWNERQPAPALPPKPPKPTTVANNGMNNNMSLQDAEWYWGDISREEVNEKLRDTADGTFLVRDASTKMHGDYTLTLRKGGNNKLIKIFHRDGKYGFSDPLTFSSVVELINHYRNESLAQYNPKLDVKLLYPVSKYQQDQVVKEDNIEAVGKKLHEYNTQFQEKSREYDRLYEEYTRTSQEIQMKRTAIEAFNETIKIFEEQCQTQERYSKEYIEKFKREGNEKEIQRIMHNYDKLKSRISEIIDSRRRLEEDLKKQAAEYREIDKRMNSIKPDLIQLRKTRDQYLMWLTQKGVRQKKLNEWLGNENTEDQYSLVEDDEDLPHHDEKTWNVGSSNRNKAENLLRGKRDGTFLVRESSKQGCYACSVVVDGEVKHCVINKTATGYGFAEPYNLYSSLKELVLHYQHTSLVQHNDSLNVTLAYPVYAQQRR
T3 sequence (O00329 whole entry): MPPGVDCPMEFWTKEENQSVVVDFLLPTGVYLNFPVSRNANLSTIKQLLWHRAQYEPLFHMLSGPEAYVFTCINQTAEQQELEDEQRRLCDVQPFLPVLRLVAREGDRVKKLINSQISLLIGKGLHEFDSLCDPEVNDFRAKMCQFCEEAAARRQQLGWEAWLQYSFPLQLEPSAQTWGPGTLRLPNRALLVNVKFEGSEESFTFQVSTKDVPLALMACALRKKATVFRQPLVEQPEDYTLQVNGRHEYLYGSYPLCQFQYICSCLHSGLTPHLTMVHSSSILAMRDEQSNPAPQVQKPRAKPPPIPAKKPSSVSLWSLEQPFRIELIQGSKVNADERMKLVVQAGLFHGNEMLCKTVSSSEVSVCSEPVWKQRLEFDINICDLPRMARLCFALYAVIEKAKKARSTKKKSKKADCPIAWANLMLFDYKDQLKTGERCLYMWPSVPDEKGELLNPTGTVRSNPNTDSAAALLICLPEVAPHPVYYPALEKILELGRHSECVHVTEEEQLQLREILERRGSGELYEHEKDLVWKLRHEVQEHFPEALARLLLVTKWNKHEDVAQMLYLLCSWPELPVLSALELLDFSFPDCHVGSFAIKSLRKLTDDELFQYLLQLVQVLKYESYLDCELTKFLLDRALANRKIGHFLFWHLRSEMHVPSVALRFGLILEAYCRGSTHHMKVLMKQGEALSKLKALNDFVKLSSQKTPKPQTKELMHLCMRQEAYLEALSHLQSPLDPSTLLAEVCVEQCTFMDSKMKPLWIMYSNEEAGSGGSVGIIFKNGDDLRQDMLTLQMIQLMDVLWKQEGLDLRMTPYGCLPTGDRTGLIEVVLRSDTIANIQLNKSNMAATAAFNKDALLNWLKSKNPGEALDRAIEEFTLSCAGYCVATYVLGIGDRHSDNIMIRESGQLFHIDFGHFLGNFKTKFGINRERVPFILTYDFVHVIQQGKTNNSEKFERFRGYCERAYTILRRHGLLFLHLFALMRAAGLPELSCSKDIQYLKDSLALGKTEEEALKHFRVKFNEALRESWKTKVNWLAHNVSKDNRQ
T3 sequence (P27986 whole entry partner): as the sequence (P27986 whole entry partner) above
T5 sequence (Q8NEB9 whole entry): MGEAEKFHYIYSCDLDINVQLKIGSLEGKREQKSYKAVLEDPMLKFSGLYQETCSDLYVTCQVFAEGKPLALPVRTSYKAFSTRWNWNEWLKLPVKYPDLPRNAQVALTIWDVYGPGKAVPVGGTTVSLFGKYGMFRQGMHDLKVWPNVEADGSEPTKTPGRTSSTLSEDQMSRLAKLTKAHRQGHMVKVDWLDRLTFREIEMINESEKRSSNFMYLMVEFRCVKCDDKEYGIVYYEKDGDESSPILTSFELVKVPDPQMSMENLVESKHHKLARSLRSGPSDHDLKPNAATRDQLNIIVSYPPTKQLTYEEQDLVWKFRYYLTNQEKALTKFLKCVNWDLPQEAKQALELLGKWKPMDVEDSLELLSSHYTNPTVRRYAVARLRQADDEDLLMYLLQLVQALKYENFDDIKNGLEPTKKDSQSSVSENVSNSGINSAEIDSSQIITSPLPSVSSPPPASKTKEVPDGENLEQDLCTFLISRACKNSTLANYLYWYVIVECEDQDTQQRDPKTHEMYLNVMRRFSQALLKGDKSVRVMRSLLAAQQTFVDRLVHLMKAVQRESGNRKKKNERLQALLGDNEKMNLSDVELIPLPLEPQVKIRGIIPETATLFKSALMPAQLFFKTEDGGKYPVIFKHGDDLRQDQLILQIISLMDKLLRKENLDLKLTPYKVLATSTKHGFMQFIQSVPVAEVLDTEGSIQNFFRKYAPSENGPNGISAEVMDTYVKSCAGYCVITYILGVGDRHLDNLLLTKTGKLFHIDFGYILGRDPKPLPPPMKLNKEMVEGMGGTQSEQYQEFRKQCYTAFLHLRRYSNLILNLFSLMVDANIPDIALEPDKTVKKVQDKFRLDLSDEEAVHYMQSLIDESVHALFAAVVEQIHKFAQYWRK

| inhibition at 1.1 µM (Human PI3K alpha) [%] | inhibition at 1.1 µM (Human PI3K beta) [%] | inhibition at 1 µM (Human PI3K delta) [%] | inhibition at 1 µM (Human PI3K gamma) [%] | inhibition at 1 µM (Human VPS34) [%] | SMILES |
| --- | --- | --- | --- | --- | --- |
| 9 | 80 | 46 | 9.5 | 19.2 | N#Cc1ccc(Cc2nc(N3CCOCC3)sc2C(=O)O)cc1 [Compound 93] |
| 53 | 101 | 89.8 | 17.8 | 45 | N#Cc1c(N2CCOCC2)sc(C(=O)O)c1Cc1ccc(F)cc1 [Compound 97] |
| 58 | 111 | 108 | 67.6 | 68.9 | O=C(O)c1sc(N2CCOCC2)nc1Cc1ccc2ccccc2c1 [Compound 98] |
| 12 | 72 | 55.4 | 6.4 | 46.7 | O=C(O)c1sc(N2CCOCC2)nc1Cc1ccc(F)cc1Cl [Compound 99] |
| 2 | 71 | 38.6 | 6.4 | 7.2 | COc1ccc(Cc2nc(N3CCOCC3)sc2C(=O)O)cc1 [Compound 103] |
| 26 | 109 | 93 | 28.8 | 63.2 | O=C(O)c1sc(N2CCOCC2)nc1Cc1ccc(Cl)cc1Cl [Compound 104] |
| 6 | 76 | 35.4 | 3.9 | 24 | O=C(O)c1sc(N2CCOCC2)nc1Cc1ccc(OC(F)(F)F)cc1 [Compound 109] |
| 7 | 77 | 60.5 | 6.9 | 46.8 | O=C(O)c1sc(N2CCOCC2)nc1Cc1ccc(C(F)(F)F)cc1 [Compound 111] |

The remaining lines, values behind:

| SMILES | inhibition at 1.1 µM (Human PI3K alpha) [%] | inhibition at 1.1 µM (Human PI3K beta) [%] | inhibition at 1 µM (Human PI3K delta) [%] | inhibition at 1 µM (Human PI3K gamma) [%] | inhibition at 1 µM (Human VPS34) [%] |
| --- | --- | --- | --- | --- | --- |
| N#Cc1c(N2CCOCC2)sc(C(=O)O)c1Cc1ccc(Cl)c(F)c1 [Compound 94, 3-(4-chloro-3-fluorobenzyl)-4-cyano-5-morpholin-4-ylthiophene-2-carboxylic acid] | 58 | 97 | 102 | 52.6 | 30.6 |
| N#Cc1c(C2=CCOCC2)sc(C(=O)O)c1Cc1ccc(Cl)cc1 [Compound 95, 3-(4-chlorobenzyl)-4-cyano-5-(3,6-dihydro-2H-pyran-4-yl)thiophene-2-carboxylic acid] | 68 | 101 | 86.1 | 23.9 | 167 |
| N#Cc1c(N2CCOCC2)sc(C(=O)O)c1Cc1ccc(Cl)cc1Cl [Compound 96] | 58 | 109 | 96 | 36.2 | 47.8 |
| O=C(O)c1sc(C2=CCOCC2)nc1Cc1ccc(Cl)cc1 [Compound 100, 4-(4-chlorobenzyl)-2-(3,6-dihydro-2H-pyran-4-yl)-1,3-thiazole-5-carboxylic acid] | 20 | 98 | 65.5 | 13.2 | 36.6 |
| COc1ccc(Cc2c(C(=O)O)sc(N3CCOCC3)c2C#N)cc1 [Compound 105] | 21 | 98 | 51.2 | 9.8 | 22.6 |
| N#Cc1c(N2CCOCC2)sc(C(=O)O)c1Cc1ccc(Br)cc1 [Compound 106] | 58 | 103 | 88.8 | 51.8 | 34.4 |
| COc1ccc(Cc2c(C(=O)O)sc(N3CCOCC3)c2C#N)cc1Cl [Compound 108] | 44 | 100 | 99.6 | 38.1 | 62.4 |
